Measured values from PMC8200818, “SPECT/CT Imaging, Biodistribution and Radiation Dosimetry of a ^177Lu-DOTA-Integrin αvβ6 Cystine Knot Peptide in a Pancreatic Cancer Xenograft Model” (Frontiers in Oncology, 2021).

Experiments:
[1] = target: T1, integrin αvβ6 (Capan-2 cells) (Homo sapiens, UniProt P06756+P18564); test: Competition binding assay, Capan-2
T1 construct: endogenous in cells; host or cells: Capan-2 (whole adherent cells)
Description: (§1) The reaction volume was made up to 30 µl with water. The reaction was carried out for 10 minutes at 80°C.
(§2) For competitive radioligand binding assay, approximately 50,000 cells (BxPC-3 or Capan-2) per well were seeded in a 96 well plate incubated overnight at 37°C. […] After 2 hours of incubation, cells were washed for 2-3 times with ice-cold washing buffer (50 mM Tris-HCl, pH 7.4, 125 mM NaCl, 0.05% BSA) and lysed with 1 N NaOH (80 µl/well). The lysed cells were transferred to vials and measured in a gamma counter (Wallac 1470 Wizard, Perkin Elmer, Waltham, MA, USA). Obtained cpm values were plotted with GraphPad Prism and the data fitted using nonlinear regression (one site - fit Ki, one site - fit logIC50).
(§3) All statistical analyses were performed using GraphPad Prism 5.04. IC50 values were determined by nonlinear sigmoidal curve fitting with variable slope setting. All presented data are based on independent experiments. Numerical data for this study have been deposited in an open data repository for public access: http://doi.org/10.5281/zenodo.4362503.

[2] = target: T2, integrin αvβ6 (BxPC-3 cells) (Homo sapiens, UniProt P06756+P18564); test: Competition binding assay, BxPC-3; conditions: BxPC-3
T2 construct: endogenous in cells; host or cells: BxPC-3 (whole adherent cells)
T2 sequence (P06756 31-889 limits assumed): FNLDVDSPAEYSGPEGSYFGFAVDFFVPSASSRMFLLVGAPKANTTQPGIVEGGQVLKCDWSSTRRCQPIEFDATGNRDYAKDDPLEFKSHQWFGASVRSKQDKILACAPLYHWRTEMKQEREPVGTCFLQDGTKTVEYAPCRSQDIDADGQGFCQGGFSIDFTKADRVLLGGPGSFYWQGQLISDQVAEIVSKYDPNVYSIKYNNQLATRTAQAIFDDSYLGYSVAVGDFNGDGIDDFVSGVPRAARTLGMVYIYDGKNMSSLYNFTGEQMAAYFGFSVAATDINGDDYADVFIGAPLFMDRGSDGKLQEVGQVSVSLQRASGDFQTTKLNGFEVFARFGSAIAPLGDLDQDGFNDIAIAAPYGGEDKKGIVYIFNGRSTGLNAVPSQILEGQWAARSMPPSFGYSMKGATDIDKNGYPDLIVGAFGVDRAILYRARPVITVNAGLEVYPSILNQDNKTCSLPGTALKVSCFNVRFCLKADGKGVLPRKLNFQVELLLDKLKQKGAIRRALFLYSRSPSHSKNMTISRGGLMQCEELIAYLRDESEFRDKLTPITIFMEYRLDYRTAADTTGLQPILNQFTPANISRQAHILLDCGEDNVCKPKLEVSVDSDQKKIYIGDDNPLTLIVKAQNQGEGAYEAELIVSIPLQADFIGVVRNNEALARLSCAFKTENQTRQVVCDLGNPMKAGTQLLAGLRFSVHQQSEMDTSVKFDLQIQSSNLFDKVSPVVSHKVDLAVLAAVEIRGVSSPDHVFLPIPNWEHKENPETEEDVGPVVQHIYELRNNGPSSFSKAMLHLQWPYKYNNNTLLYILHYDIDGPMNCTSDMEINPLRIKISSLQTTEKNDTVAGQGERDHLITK
T2 sequence (P06756 891-1048 partner limits assumed): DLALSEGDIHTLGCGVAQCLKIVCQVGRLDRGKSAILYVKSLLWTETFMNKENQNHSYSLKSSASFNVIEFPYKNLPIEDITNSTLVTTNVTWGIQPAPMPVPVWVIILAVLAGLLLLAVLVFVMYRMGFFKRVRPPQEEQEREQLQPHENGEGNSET
T2 sequence (P18564 22-788): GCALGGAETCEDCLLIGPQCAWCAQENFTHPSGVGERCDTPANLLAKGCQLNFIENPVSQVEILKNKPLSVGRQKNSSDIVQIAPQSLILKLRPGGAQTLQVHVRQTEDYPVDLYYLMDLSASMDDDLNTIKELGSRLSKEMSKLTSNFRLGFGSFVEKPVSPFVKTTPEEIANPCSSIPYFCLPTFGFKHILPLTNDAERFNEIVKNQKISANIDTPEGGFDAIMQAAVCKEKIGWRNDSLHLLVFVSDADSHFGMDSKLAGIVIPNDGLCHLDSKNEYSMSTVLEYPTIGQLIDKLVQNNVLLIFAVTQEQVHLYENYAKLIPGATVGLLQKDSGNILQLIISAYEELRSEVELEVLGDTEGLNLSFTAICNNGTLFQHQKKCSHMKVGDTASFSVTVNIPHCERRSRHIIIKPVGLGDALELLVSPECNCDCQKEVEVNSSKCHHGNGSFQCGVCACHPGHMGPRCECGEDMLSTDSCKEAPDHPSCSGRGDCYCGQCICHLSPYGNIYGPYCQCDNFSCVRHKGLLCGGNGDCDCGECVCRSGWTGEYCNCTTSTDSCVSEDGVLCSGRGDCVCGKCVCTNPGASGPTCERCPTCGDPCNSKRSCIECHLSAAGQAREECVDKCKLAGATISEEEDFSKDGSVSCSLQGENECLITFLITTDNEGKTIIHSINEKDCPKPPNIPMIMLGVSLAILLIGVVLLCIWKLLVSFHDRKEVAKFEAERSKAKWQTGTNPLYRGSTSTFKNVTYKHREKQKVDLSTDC
Description: as §1, §2, §3

[3] = system: Capan-2 xenografts; conditions: day 1 versus day 8 after injection; single dose; listed as DOTA-integrin αvβ6 knottin
[4] = system: integrin αvβ6; conditions: cited from earlier work
Source text: Cystine knot peptides (knottins) represent small peptides of approximately 4 kDa with three threaded disulfide bonds that form a rigid topological knot constraining the peptide’s conformational flexibility. Such a structural motif is known as a cystine knot ([21], [22]). One of the advantages of knottins is the high variability of backbone residues that may be used to modulate tumor and kidney uptake ([23]). Knottins are well suited for in vivo tumor-targeting applications as their disulfide-bonded core confers outstanding thermal stability and resistance against proteolytic degradation; moreo ...

[5] = cited from earlier work
[6] = displacement of ^125I-DOTA-integrin αvβ6 knottin (100,000 cpm), 2 h, pH 7.4, mean ± S.E.M. (3 ≤ n ≤ 4), read-out: Inhibitory constant (Ki)

T1 sequence (P06756 31-889 limits assumed): as the sequence (P06756 31-889 limits assumed) above
T1 sequence (P06756 891-1048 partner limits assumed): as the sequence (P06756 891-1048 partner limits assumed) above
T1 sequence (P18564 22-788): as the sequence (P18564 22-788) above

| Structure (SMILES) | Ki [1, 6] | Ki [2, 6] | Tissue structure of xenografts (H&E) [3] | Effect of DOTA / ^natLu chelation on affinity [1] | Effect of DOTA / ^natLu chelation on affinity [2] | Binding affinity for integrin αvβ6 [4] | Stability and affinity to the receptor in vivo [5] | Tumor uptake (previous) ([5]; in vivo) |
| --- | --- | --- | --- | --- | --- | --- | --- | --- |
| CC[C@H](C)[C@@H]1NC(=O)[C@@H](NC(=O)CNC(=O)CN2CCN(CC(=O)O)CCN(CC(=O)O)CCN(CC(=O)O)CC2)CSSC[C@@H]2NC(=O)[C@H](C)NC(=O)CNC(=O)[C@@H]3CCCN3C(=O)[C@@H]3CSSC[C@@H](C(=O)NCC(=O)O)NC(=O)[C@H](Cc4ccc(O)cc4)NC(=O)CNC(=O)[C@H](CC(N)=O)NC(=O)CNC(=O)[C@H](CCCNC(=N)N)NC(=O)[C@H](CSSC[C@H](NC(=O)[C@H](CCCNC(=N)N)NC(=O)[C@H](Cc4ccccc4)NC(=O)[C@H](CC(C)C)NC(=O)[C@H](CC(C)C)NC(=O)[C@H]([C@@H](C)O)NC(=O)CNC(=O)[C@H](CC(C)C)NC(=O)[C@H](CC(=O)O)NC(=O)[C@H]([C@@H](C)O)NC(=O)[C@H](CCCNC(=N)N)NC(=O)CNC(=O)[C@H](CC(N)=O)NC(=O)[C@H](CC(C)C)NC1=O)C(=O)N[C@@H](CCCNC(=N)N)C(=O)N[C@@H](CCCNC(=N)N)C(=O)N[C@@H](CC(=O)O)C(=O)N[C@@H](CO)C(=O)N[C@@H](CC(=O)O)C(=O)N3)NC(=O)[C@H]([C@@H](C)CC)NC2=O [DOTA knottin] | 9.46 ± 5.21 nM | 1.69 ± 1.3 nM | no significant impact was observed | – | – | – | – | – |
| CC[C@H](C)[C@@H]1NC(=O)[C@@H](NC(=O)CNC(=O)CN2CCN(CC(=O)O)CCN(CC(=O)O)CCN(CC(=O)O)CC2)CSSC[C@@H]2NC(=O)[C@H](C)NC(=O)CNC(=O)[C@@H]3CCCN3C(=O)[C@@H]3CSSC[C@@H](C(=O)NCC(=O)O)NC(=O)[C@H](Cc4ccc(O)cc4)NC(=O)CNC(=O)[C@H](CC(N)=O)NC(=O)CNC(=O)[C@H](CCCNC(=N)N)NC(=O)[C@H](CSSC[C@H](NC(=O)[C@H](CCCNC(=N)N)NC(=O)[C@H](Cc4ccccc4)NC(=O)[C@H](CC(C)C)NC(=O)[C@H](CC(C)C)NC(=O)[C@H]([C@@H](C)O)NC(=O)CNC(=O)[C@H](CC(C)C)NC(=O)[C@H](CC(=O)O)NC(=O)[C@H]([C@@H](C)O)NC(=O)[C@H](CCCNC(=N)N)NC(=O)CNC(=O)[C@H](CC(N)=O)NC(=O)[C@H](CC(C)C)NC1=O)C(=O)N[C@@H](CCCNC(=N)N)C(=O)N[C@@H](CCCNC(=N)N)C(=O)N[C@@H](CC(=O)O)C(=O)N[C@@H](CO)C(=O)N[C@@H](CC(=O)O)C(=O)N3)NC(=O)[C@H]([C@@H](C)CC)NC2=O [^natLu DOTA knottin, metal not drawn] | – | – | – | did not compromise the high affinity of the tracer | did not compromise the high affinity of the tracer | – | – | – |
| CC[C@H](C)[C@@H]1NC(=O)[C@@H](NC(=O)CN)CSSC[C@@H]2NC(=O)[C@H](C)NC(=O)CNC(=O)[C@@H]3CCCN3C(=O)[C@@H]3CSSC[C@@H](C(=O)NCC(=O)O)NC(=O)[C@H](Cc4ccc(O)cc4)NC(=O)CNC(=O)[C@H](CC(N)=O)NC(=O)CNC(=O)[C@H](CCCNC(=N)N)NC(=O)[C@H](CSSC[C@H](NC(=O)[C@H](CCCNC(=N)N)NC(=O)[C@H](Cc4ccccc4)NC(=O)[C@H](CC(C)C)NC(=O)[C@H](CC(C)C)NC(=O)[C@H]([C@@H](C)O)NC(=O)CNC(=O)[C@H](CC(C)C)NC(=O)[C@H](CC(=O)O)NC(=O)[C@H]([C@@H](C)O)NC(=O)[C@H](CCCNC(=N)N)NC(=O)CNC(=O)[C@H](CC(N)=O)NC(=O)[C@H](CC(C)C)NC1=O)C(=O)N[C@@H](CCCNC(=N)N)C(=O)N[C@@H](CCCNC(=N)N)C(=O)N[C@@H](CC(=O)O)C(=O)N[C@@H](CO)C(=O)N[C@@H](CC(=O)O)C(=O)N3)NC(=O)[C@H]([C@@H](C)CC)NC2=O [knottin] | – | – | – | did not change upon either the addition of a DOTA chelator moiety or incorporation of natural non-radioactive lutetium | did not change upon either the addition of a DOTA chelator moiety or incorporation of natural non-radioactive lutetium | low single-digit nanomolar binding affinity | not compromised in vivo | favorable tumor uptake |
